# Results reported in US8455468B2, “Methods for the treatment of a traumatic central nervous system injury” (priority 2005, dated 2013).
# Assays:
# clinical = settings: human, in vivo
# Experimental: Multiple blood samples were obtained from 11 female and 21 male trauma patients receiving PG and 1 female and 3 male patients receiving placebo infusions for 72 h. Values for CSS, CL, t1/2 and Vd were obtained using AUC(0-72) and post-infusion blood samples.
# This study was approved by the Institutional Review Board of Emory University, the Drug Safety Monitoring Board (NINDS) and the FDA (IND #58,986). After obtaining informed consent, thirty-six patients meeting the inclusion criteria outlined as follows were studied. […] Inclusion criteria required that each patient be ≧18 years old, have a closed head injury arising from blunt trauma, have a moderate to severe brain injury (Index Glasgow Coma Score (GCS) 4-12) and arrive in the Emergency Department and obtain informed consent (from next-of-kin) in less than 11 hours post injury.
# Aliquots of each solution were assayed for final concentration and sterility. […] Each kit contained six vials. […] The placebo kits were also formulated with 95% ethanol. Because of the alcohol concentration, doses of study drug were mixed with Intralipid® immediately prior to infusion. Each infusion dose was administered over 12 hours and repeated every 12 hours for a total of 72 hours. […] The dosing worksheet was also used to calculate the volume of study medication to be diluted in Intralipid® for each of the remaining infusion reservoirs at a standard rate of 10 cc/hr.
# Nine (5 ml) samples were obtained at the following times during the infusion: pre-infusion (0), 4, 6, 12, 24, 36, 48, 60, and 72 hours. An additional five samples were obtained following cessation of infusion at: 0.5, 1, 2, 4 and 8 hours. Samples were allowed to clot, and then centrifuged. After that, the serum was removed and stored at −70° C. until analyzed.
# The primary pharmacokinetic parameter, CL, was estimated as the ratio of the dose to area under the serum concentration-time curve (AUC). AUC's were calculated using the linear trapezoidal rule (Veng-Pedersen (1989) Clin Pharmacokinet, 17(6):424-40). The elimination phase rate constant, ke, was calculated from the serum concentration-time data following the termination of the infusion using iterative non-linear regression (WinNonlin®, Pharsight Corporation, Mountain View, Calif.). Volume of Distribution was estimated as the ratio of CL and ke. Css was estimated as the ratio of Dose and CL. Actual Css was defined as the concentration achieved when the slope of the serum concentration-time curve for three or more consecutive samples was not different from zero.
# Predicted Css concentrations were calculated as the ratio of the infusion rate/clearance. Differences between predicted and measured Css were made using a ‘t’ test for repeated measures. A Bland-Altman analysis was conducted to assess the magnitude of any bias associated with this approach (Bland and Altman (1986) Lancet, 1(8476):307-10). Pharmacokinetic parameter comparisons between male and female were accomplished using a ‘t’ test for independent means. A p value of less than 0.05 was considered the minimum level for rejection of the null hypothesis.
# [1] = Stability of progesterone solutions (HPLC-UV); format: physicochemical
# Text: For all stability testing, the method of […], et al. was used with minor modifications ([…], et al. (1999) Journal of Pharmaceutical & Biomedical Analysis, 19(5):803-8). The method was originally validated to assess the stability of medroxyprogesterone acetate and estradiol valerate tablets. It is an isocratic HPLC-UV method utilizing external standardization. A 5 micron, 4.6×250 mm BDS-Hypersil C-18 column (Keystone Scientific) was used and the analyses were completed on an Agilent 1100 model HPLC system with photodiode array detector. The mobile phase consisted of 40% 0.07M ammonium acetate buffer, pH 7.2 and 60% acetonitrile. Detection was at […]. […] Reproducibility as assessed by 10 injections of the same preparation on multiple different days was always less that 10%. […] A five point standard curve was run with each analysis.
# [2] = Solubility of progesterone in carrier; format: physicochemical
# moderate to severe TBI = test: Pilot phase II randomized double-blind trial of progesterone for traumatic brain injury, preliminary evaluation (Example 2); format: in vivo, human
# Experimental: The administration protocol was carried out was described above in Example 1.
# To determine if a therapeutic response was achieved, the following endpoints were monitored: • ICP reduction determined by calculating “therapeutic intensity level” (ICP-TIL); • duration of coma (injury to awaking); • mortality one-month post injury; • neurological outcome 1 month and 1 year post-injury, as determined by Glasgow outcome scale (GOS), Disability rating scale (DRS) and Galveston orientation and amnesia test (GOAT).
# The administration protocol and pharmaceutical composition administered are described in detail in Example 1. Follow up regarding condition occurred at 30 days and 1 year.
# acute TBI [3] = tested on: acute TBI
# Experimental: This phase II, randomized, double blind, placebo-controlled clinical trial was conducted at an urban, level I trauma center. 100 adults presenting within 11 hours of a blunt TBI with a Glasgow Coma Scale score of 4-12 were enrolled with proxy consent. […] Blinded observers closely monitored patients for the occurrence of adverse events, and initial functional outcomes were assessed 30 days post-injury. The primary safety outcome was difference in adverse event rates, including mortality. The primary measure of activity was dichotomized Glasgow outcome scale extended (GOSE) 30 days post injury.
# We also hoped to detect signals of activity.
# According to the U.S. Food and Drug Administration, an “adverse event” is any undesirable medical event occurring to a subject in a clinical trial, whether or not related to the study drug. This includes events not seen at baseline, or worsened if present at baseline. “Serious adverse events” are defined as death, immediate risk of death, or suspicion that use or continued use would result in the patient's death, prolongation of existing hospitalization, persistent or significant disability/incapacity, or a congenital anomaly/birth defect.
# These included any thromboembolic event (deep vein thrombosis, thrombophlebitis, ischemic myocardial infarction, pulmonary embolism, stroke or transient ischemic attack), elevated liver enzymes, temperature elevation, allergic reactions, and hyperglycemia. […] An independent internal safety monitor made the determination if an adverse event was associated with study treatment. Both the FDA and an independent NIH-appointed data safety monitoring board independently reviewed these determinations.
# Interventions: Following proxy consent, patients were placed in one of 8 clinical subgroups defined by gender (male versus female), race (black versus all others) and TBI severity (moderate versus severe). […] This asymmetric approach was adopted at the request of our NIH-appointed DSMB to maximize the number of patients receiving study drug while maintaining blinding.
# Whenever a patient was enrolled, the next kit in sequence for that subgroup was used to prepare infusions. […] The remaining vials were used to prepare 5 subsequent 12-hour infusions at the same standard rate of 10 mls/hour for a total of 3 days of treatment. Details of drug monitoring are reported elsewhere (Wright et al. (2005) J Clin Pharmacol 45(6):640-648).
# Methods of Measurement: To assess drug safety, study personnel rounded daily to document the occurrence of adverse events (AEs) or serious adverse events (SAES). Hourly vital signs (blood pressure, heart rate, respiratory rate, temperature, and pulse oximetry), intracranial pressure readings, and other parameters (mean arterial pressure, cerebral perfusion pressure, and fluid balance), were abstracted from each patient's chart. Laboratory values were obtained from the hospital's information system, and concomitant medications and interventions were noted.
# Whenever an SAE occurred, an independent board-certified neurosurgeon assessed its potential relationship to study treatment using pre-defined scale. SAEs were reported within 24 hours to the Institutional Review Board (IRB), our NIH-appointed Data Safety Monitoring Board (DSMB), and the U.S. Food and Drug Administration. All other adverse events were reported to on a weekly basis.
# Primary Data Analysis—Treatment and placebo groups were compared with respect to a variety of demographic, historical and prehospital characteristics to ensure that important independent predictors of outcome were equally distributed. Next, the groups were compared with respect to rates of adverse and serious adverse events, using Fisher's exact test.
# acute TBI [4] = test: Phase II ProTECT trial: physiological parameters during infusion; format: in vivo, human
# Text: Primary Data Analysis—Treatment and placebo groups were compared with respect to a variety of demographic, historical and prehospital characteristics to ensure that important independent predictors of outcome were equally distributed. Next, the groups were compared with respect to rates of adverse and serious adverse events, using Fisher's exact test. Generalized linear model analysis using a negative binomial distribution was used to compare rates of events that occurred multiple times per patient within the first 30 days (McCullagh and Nelder (1989) Generalized Linear Models (2nd ed, Chapman & Hill)). Then, group specific differences in 30-day outcomes. Fisher's exact test was used to analyze GOSE scores dichotomized into “good or moderate recovery” versus all other levels. Wilcoxon's rank sum test was used to compare group specific DRS scores. Mean and median durations of coma and post-traumatic amnesia were compared using student's t-test. All analyses were stratified on an a priori basis by brain injury severity (iGCS 4-8 (severe) versus iGCS 9-12 (moderate)). Longitudinal mixed effects models were used to analyze ICP-TIL as well as other hourly or daily clinical measurements from enrollment through treatment day 4.
# acute TBI [5] = test: Phase II ProTECT trial: outcome variables 30 days post injury; format: in vivo, human
# Text: In addition to monitoring subjects for signs of harm, we hoped to detect signals of activity. […] For this preliminary study, our primary outcome of interest was Glasgow Outcome Scale Extended (GOSE) 30 days post-injury. […] Thirty days following each injury event, we assessed each patient's Glasgow Outcome Score Extended (GOSE) and Disability Rating Scale (DRS). Patients who were severely impaired were classified as “not testable”-a surrogate marker for a poor outcome. Reliability codes were used to record reasons for non-administration of a particular measure, such as physical impairment (e.g., hemiparesis) cognitive impairment (e.g., could not understand instructions), or intoxication. One-year outcomes will be reported at a later date. […] Our secondary aim was to look for signs of drug activity by assessing several measures of outcome. Our a priori primary measure of outcome was the Glasgow Outcome Scale-Extended ([…] et al. (1998) Journal of Neurotrauma 15(8):587-597). […] (1987) Journal of Neurosurgery 67(6):832-840) and 5) the Disability Rating Scale (DRS) (Hall et al. […] Variables determined to be independently associated with all-cause mortality or CNS related-death, such as iGCS (dichotomized into moderate versus severe), injury severity score and Marshall CT score were incorporated in a stepwise logistic regression analyses. […]
structure (smiles),measurement,setting,value
"CC(=O)[C@H]1CC[C@H]2[C@@H]3CCC4=CC(=O)CC[C@]4(C)[C@H]3CC[C@]12C [progesterone, pregn-4-ene-3,20-dione]",maintenance infusion rate to achieve target concentration of 450±100 ng/mL,clinical; both,approximately 0.8 mg/kg/h
same,clearance,"clinical; both, CL",1.73 L/h/kg
same,half-life,"clinical; both, terminal half-life",1.78 ± 1 h
same,Vd,clinical; female,1.33 L/kg
same,concentration at 0 h,clinical; female,2.86 ± 1.37 ng/mL
same,clearance,"clinical; female, CL",1.88 L/h/kg
same,Vd,clinical; male,1.62 L/kg
same,concentration at 0 h,clinical; male,2.53 ± 1.73 ng/mL
same,clearance,"clinical; male, CL",1.66 L/h/kg
same,clearance,"clinical; male, iv",1.33 L/h/kg
same,stability of Intralipid solutions containing progesterone in 95% ethyl alcohol,[1],≥ 24 h
same,stability of solution of progesterone in 95% ethyl alcohol,[1]; room temperature,up to 2 years
same,solubility,[2],soluble only in alcohol
same,reduction in brain deaths,moderate to severe TBI; vs control,60%
same,proportion of subjects experiencing brain death,"moderate to severe TBI; vs group B, p=0.0295 Fisher's exact test",significantly lower proportion
same,Death within 30 days,acute TBI [3]; 30-day adverse event rate,13.0%
same,Acute respiratory distress syndrome,"acute TBI [3]; both, human, in vivo, 30 days",2.6%
same,Cardiac Arrhythmia,"acute TBI [3]; both, human, in vivo, 30 days",5.2%
same,Central nervous system infection,"acute TBI [3]; both, human, in vivo, 30 days",1.3%
same,Cholestatic Jaundice,"acute TBI [3]; both, human, in vivo, 30 days",6.5%
same,Fever,"acute TBI [3]; both, human, in vivo, 30 days",70.1%
same,Gastrointestinal Bleed,"acute TBI [3]; both, human, in vivo, 30 days",5.2%
same,Hyperglycemia-non DM,"acute TBI [3]; both, human, in vivo, 30 days",27.3%
same,Hypertension,"acute TBI [3]; both, human, in vivo, 30 days",11.7%
same,Hypotension,"acute TBI [3]; both, human, in vivo, 30 days",9.1%
same,Hypothermia,"acute TBI [3]; both, human, in vivo, 30 days",5.2%
same,Hypoxemia,"acute TBI [3]; both, human, in vivo, 30 days",11.7%
same,Increase Liver Enzyme,"acute TBI [3]; both, human, in vivo, 30 days",6.5%
same,Phlebitis at Injection Site,"acute TBI [3]; both, human, in vivo, 30 days",1.3%
same,Rash or Hives,"acute TBI [3]; both, human, in vivo, 30 days",2.6%
same,Seizures,"acute TBI [3]; both, human, in vivo, 30 days",5.2%
same,Sepsis,"acute TBI [3]; both, human, in vivo, 30 days",2.6%
same,Shock,"acute TBI [3]; both, human, in vivo, 30 days",2.6%
same,Suspected Pneumonia,"acute TBI [3]; both, human, in vivo, 30 days",11.7%
same,Syndrome of inappropriate ADH,"acute TBI [3]; both, human, in vivo, 30 days",1.3%
same,Tachycardia,"acute TBI [3]; both, human, in vivo, 30 days",24.7%
same,Thromboembolic Disease,"acute TBI [3]; both, human, in vivo, 30 days",3.9%
same,adverse events specifically ascribed to administration,acute TBI [3]; in vivo,two cases of superficial phlebitis at the IV site
same,deep vein thrombosis,acute TBI [3]; in vivo,Three patients
same,"rise in mean temperature over the infusion interval, treatment by time interaction slope",acute TBI [3]; in vivo,−0.0055
same,serious adverse events attributed to study drug,acute TBI [3]; in vivo,No serious adverse events were attributed to progesterone
same,mean intracranial pressure levels (ICPs) trend,"acute TBI [4]; first 4 days post-injury, subjects with monitors, not statistically significant",remained stable
same,Mean Duration of Pressures Exceeding Threshold Values: CPP < 60,acute TBI [4]; in vivo,6.9 h
same,Mean Duration of Pressures Exceeding Threshold Values: ICP > 25,acute TBI [4]; in vivo,5.0 h
same,Mean Duration of Pressures Exceeding Threshold Values: MAP < 70,acute TBI [4]; in vivo,2.5 h
same,Mean Duration of Pressures Exceeding Threshold Values: Systolic BP < 90,acute TBI [4]; in vivo,2.7 h
same,"Mean Frequency of Pressures Exceeding Threshold Values: CPP < 60, Rate/1000 consecutive readings",acute TBI [4]; in vivo,92.9
same,"Mean Frequency of Pressures Exceeding Threshold Values: ICP > 25, Rate/1000 consecutive readings",acute TBI [4]; in vivo,70.2
same,"Mean Frequency of Pressures Exceeding Threshold Values: MAP < 70, Rate/1000 consecutive readings",acute TBI [4]; in vivo,29.5
same,"Mean Frequency of Pressures Exceeding Threshold Values: Systolic BP < 90, Rate/1000 consecutive readings",acute TBI [4]; in vivo,32.1
same,Percent of Patients with Clinical Values Exceeding the Threshold: CPP < 60,acute TBI [4]; in vivo,48.7%
same,Percent of Patients with Clinical Values Exceeding the Threshold: ICP > 25,acute TBI [4]; in vivo,32.4%
same,Percent of Patients with Clinical Values Exceeding the Threshold: MAP < 70,acute TBI [4]; in vivo,29.0%
same,Percent of Patients with Clinical Values Exceeding the Threshold: Systolic BP < 90,acute TBI [4]; in vivo,29.0%
same,"Cerebral Perfusion Pressure, mean",acute TBI [4]; infusion day 0,70.3 mmHg
same,"Cerebral Perfusion Pressure, mean",acute TBI [4]; infusion day 1,73.4 mmHg
same,"Fluid Balance, mean",acute TBI [4]; infusion day 1,767.9 + mls
same,"Cerebral Perfusion Pressure, mean",acute TBI [4]; infusion day 2,75.9 mmHg
same,"Fluid Balance, mean",acute TBI [4]; infusion day 2,1189.5 + mls
same,"Cerebral Perfusion Pressure, mean",acute TBI [4]; infusion day 3,74.9 mmHg
same,"Fluid Balance, mean",acute TBI [4]; infusion day 3,802.0 + mls
same,"Cerebral Perfusion Pressure, mean",acute TBI [4]; infusion day 4,73.8 mmHg
same,"Fluid Balance, mean",acute TBI [4]; infusion day 4,818.7 + mls
same,"Disability Rating Score: Total DRS, mean",acute TBI [5]; Index GCS = 9-12,5
same,DRS scores vs placebo,acute TBI [5]; moderately brain-injured patients,significantly better DRS scores
